From patent US8124594B2, “Methods using phosphatidylserine, lysophosphatidylserine, and/or salts thereof to increase testosterone levels” (Chemi Nutra, LLC, priority 2007, dated 2012)

Experiments:
healthy male subjects = experiment: Plasma testosterone response to moderate intensity cycle ergometer exercise after 10 days of oral PS or placebo (double-blind crossover); format: in vivo, human
Experimental: The purpose of the current study was to investigate the efficacy of short-term S-PS supplementation, at dosage levels less than the currently established dose, on testosterone response to acute moderate-intensity exercise. This study aimed to examine the influence of short-term supplementation with a moderate dose of PS (600 mg per day) on plasma concentrations of testosterone before, during, and following moderate intensity exercise in healthy males. 10 healthy male subjects participated in the study. Each subject was assigned to ingest 600 mg PS or placebo per day for 10 days using a double-blind, placebo-controlled, crossover design. Serial venous blood samples were taken at rest, after a 15 minute moderate intensity exercise protocol on a cycle ergometer that consisted of five 3-minute incremental stages beginning at 65% and ending at 85% VO2max, and during a 65 minute passive recovery. Plasma samples were assessed for testosterone for treatment (PS or placebo). PS increased AUC for testosterone to cortisol ratio (184±5%) when compared to placebo (p<0.05).
Subjects. Ten healthy males participated in this study. All subjects in this investigation participated in a familiarization session. During the familiarization session, subjects were informed as to the experimental procedures, completed a personal/medical history form, and signed informed consent statements in adherence with the human subject's guidelines of the American College of Sports Medicine. No subject in this trial was a vegetarian with all subjects reportedly consuming meat in their daily diet.
Each participant completed three testing sessions during the 21-day study. Participants performed a graded exercise test (starting at 50 W, increasing by 50 W increments every 2 minutes) on a cycle ergometer (Gary Fisher Tarpon OS Series Mountain Bike connected to a Computrainer Pro model 8002 RacerMate EBRA™ Approved System with software version 1.1.59) to assess maximal oxygen consumption (VO2max), and were scheduled for testing sessions 2 and 3 (day 11 and day 21). VO2max was determined using a Sensormedic V229 Metabolic System that was calibrated following the recommended technical guidelines (Sensormedics Corporation, Yorba Linda, Calif.). Upon completion of the VO2max test the participants were randomly assigned to one of two groups and received a 10-day supply of either the placebo or PS (600 mg per day of soy-derived PS).
The second and third exercise sessions were performed to determine testosterone responses to exercise induced stress at rest, during exercise, and recovery. On the tenth day of supplementation the participants ingested the last dose of the assigned substance (PS or placebo) and reported to the laboratory at 7 am after an overnight fast. Venous blood samples were taken on arrival (−30) and 30 minutes later, which was just prior to the start of exercise (0). Following the 30 minute rest period, the participants were asked to begin exercising on the cycle ergometer at an exercise intensity calculated to elicit 65% of VO2max. The intensity of exercise was increased automatically by 5% every 3-minute increment until the intensity was at 85% of VO2max (five-three minute stages). After cycling for a total of 15 minutes, the subject stopped exercising and a post-exercise venous blood sample was taken immediately. […]

older males = experiment: Effect of PS supplementation on serum and free testosterone of older males with exercise regimens; format: in vivo, human
Experimental: A. subject three, a physically active non smoking […] who took no prescription drugs or alcohol was the first subject. Starting on Day 1, the person consumed 600 mg of Phosphatidylserine (Chemi Nutra, Inc., White Bear Lake, Minn.) for 11 days accompanied by the following cardio and resistance workouts: • Day 1: lifted weights for 1.5 hours and intense cardio exercise, 12 minutes. • Day 2: intense cardio exercise for 28 minutes. • Day 3: easy pace walk, 1.5 mile. • Day 4: intense cardio exercise for 35 minutes. • Day 5: easy pace walk, 2 miles. • Day 6: lifted weights for 1.5 hours. • Days 7 and 8: rest, no exercise. • Day 9 intense cardio exercise, 35 minutes and 12 miles easy pace walk • Day 10: lifted weights 1.5 hours. Blood was drawn at 8:00 am on the first and eleventh day of the study and analyzed for serum and free testosterone by Life Extension National Diagnostics, Inc., Ft. Lauderdale, Fla. Serum testosterone rose from 575 nanograms per decilitier to 665 nanograms per deciliter, a 16% increase. B. The second subject (RJ) is a person. Starting on day 1, RJ consumed 400 mg PS daily for 11 days, accompanied by the following exercise regimens: • Day 2: bicycle ergometer for 30 minutes and elliptical trainer for 30 minutes. • Day 3: tennis singles match for 1.5 hours. • Day 4: treadmill 15 minutes and upper body resistance exercise for 1 hour. • Day 5: elliptical trainer for 45 minutes and resistance exercise for 30 minutes. • Day 6: rest. • Day 7: treadmill for 30 minutes; elliptical trainer for 30 minutes; resistance exercise for 30 minutes. • Day 8: rest. • Day 9: resistance exercise 1.5 hours. • Day 10 elliptical trainer for 1 hour. • Day 11: upper body resistance exercise for 30 minutes. Serum testosterone levels and free testosterone levels were measured on days 1 and 12. Serum testosterone increased from 290 nanograms/deciliter to 437 nanograms/deciliter, an increase of 51%. Free testosterone increased from 11.4 picograms/ml to 18.0 picograms/ml, an increase of 58%. C. The third subject is person one. The person consumed 300 mg PS (Chemi Nutra) daily for 11 days accompanied by a cardio and resistance training workout on days 2-11: • Day 2: 9 miles cycling for 35 minutes; 4 miles running for 40 minutes; 9 miles cycling for 40 minutes. • Day 3: tennis singles match for 1.5 hours. • Day 4: 9 miles cycling for 45 minutes; whole body resistance training for 1 hour; 9 miles cycling for 50 minutes. • Day 5: 9 miles cycling for 30 minutes; 5 miles running for 45 minutes; 9 miles cycling for 30 minutes • Day 6: rest. • Day 7: rest. • Day 8: resistance training 1.5 hours. • Day 9: 9 miles cycling for 50 minutes; upper body resistance exercise 1 hour; 9 miles cycling for 50 minutes. • Day 10: high-intensity resistance training for 30 minutes. • Day 11: 5 miles running for 50 minutes. Serum testosterone levels and free testosterone levels were measured on days 1 and 12. Serum testosterone increased from 734 nanograms/deciliter to 781 nanograms/deciliter, an increase of 6.4%. Free testosterone increased from 22.1 picograms/ml to 27.0 picograms/ml, an increase of 22%.

cortisol response [1] = conditions: cited from earlier work
cortisol response [2] = conditions: 800 mg, cited from earlier work
[3] = subject one, 300 mg daily for 11 days
[4] = subject two, 400 mg daily for 11 days

In the case of phosphatidylserine [PS], the “increase of AUC for testosterone to cortisol ratio compared to placebo” value (healthy male subjects; 600 mg PS per day oral for 10 days, 10 healthy males, p<0.05) is reported as 184±5%, the “increase of plasma testosterone concentrations compared with placebo” value (healthy male subjects; 600 mg/day S-PS for 10 days) is reported as 51±6% and the “plasma testosterone levels at the beginning of the exercise compared to placebo” value (healthy male subjects; 600 mg/day S-PS for 10 days) is reported as “higher plasma testosterone levels”. For the same substance, the “increase of testosterone area under the curve versus placebo” value (healthy male subjects; 600 mg/day S-PS for 10 days, FIG. 2, p=0.02) was 37±5%, the “mean peak concentration of testosterone” value (healthy male subjects; 600 mg/day S-PS for 10 days, plasma, placebo 5.5±0.3, P (treatment) 0.13) was 8.3 ± 1.7 ng/mL and the “increase of free testosterone” value (older males; [3]) was 22%. For the same substance, the “increase of serum testosterone” value (older males; [3]) was 6.4%, the “free testosterone after treatment” value (older males; subject one, 300 mg daily for 11 days, day 12, day 1 22.1) was 27.0 picograms/ml and the “serum testosterone after treatment” value (older males; subject one, 300 mg daily for 11 days, day 12, day 1 734) was 781 nanograms/deciliter. For the same substance, the “increase of serum testosterone” value (older males; subject three, 600 mg for 11 days) was 16%, the “serum testosterone after treatment” value (older males; subject three, 600 mg for 11 days, eleventh day, first day 575) was 665 nanograms per deciliter and the “increase of free testosterone” value (older males; [4]) was 58%. The “increase of serum testosterone” value (older males; [4]) was 51%, the “free testosterone after treatment” value (older males; subject two, 400 mg daily for 11 days, day 12, day 1 11.4) was 18.0 picograms/ml and the “serum testosterone after treatment” value (older males; subject two, 400 mg daily for 11 days, day 12, day 1 290) was 437 nanograms/deciliter. For the same substance, the “cortisol response compared to placebo” value (cortisol response [1]; 400 mg) was “no significant result”, the “lowering of cortisol response” value (cortisol response [1]; 800 mg supplementation) was 30% and the “reduction of cortisol response to intensive resistance training” value (cortisol response [2]) was 20%. For the same substance, the “effect on testosterone levels” value (cortisol response [2]; intensive resistance training) was “no effect”.
